Data from ChEMBL document CHEMBL2375321, “Discovery of 3,3'-diindolylmethanes as potent antileishmanial agents” (Eur J Med Chem, 2013).
In brackets after ≈: the same amount, converted by molar mass. Activity calls are given as the source filed them. Unless noted, no cut-off for these calls is given here.

Legend:
[1] = test system: Cryptococcus neoformans; assay: Antifungal activity against Cryptococcus neoformans ATCC 90113 by CLSI method; type: functional, organism-based
[2] = test system: Candida albicans; assay: Antifungal activity against Candida albicans ATCC 90028 by CLSI method; type: functional, organism-based
[3] = test system: Aspergillus fumigatus; assay: Antifungal activity against Aspergillus fumigatus ATCC 204305 by CLSI method; type: functional, organism-based
[4] = test system: Mycobacterium intracellulare; assay: Antibacterial activity against Mycobacterium intracellulare ATCC 23068 by alamar blue assay; type: functional, organism-based
[5] = test system: Staphylococcus aureus; assay: Antibacterial activity against methicillin-resistant Staphylococcus aureus ATCC 33591 by CLSI method; type: functional, organism-based
[6] = test system: Staphylococcus aureus; assay: Antibacterial activity against Staphylococcus aureus ATCC 29213 by CLSI method; type: functional, organism-based
[7] = test system: Vero; assay: Cytotoxicity against african green monkey Vero cells up to 4.6 ug/ml after 48 hrs by neutral red assay; type: cell-based; details: chlorocebus sabaeus
[8] = test system: Leishmania donovani; assay: Antileishmanial activity against axenic amastigote of Leishmania donovani after 72 hrs by alamar blue assay; type: functional, organism-based
[9] = test system: Leishmania donovani; assay: Antileishmanial activity against promastigote of Leishmania donovani after 72 hrs by alamar blue assay; type: functional, organism-based; details: for IC50: read-out: IC50
[10] = test system: Plasmodium falciparum; assay: Antimalarial activity against chloroquine-sensitive Plasmodium falciparum D6 assessed as plasmodial LDH activity after 72 hrs; type: functional, organism-based; details: D6, 72 h
[11] = Staphylococcus aureus, ATCC 33591
[12] = Staphylococcus aureus, ATCC 33591, read-out: IC50
[13] = Leishmania donovani, 72 h, read-out: IC50

Structure (SMILES)	IC50 [1]	MFC [1]	MIC [1]	Activity [2]	Activity [3]	IC50 [4]	MBC [4]	MIC [4]	MBC [5]	MIC [5, 11]	IC50 [5, 12]	IC50 [6]	MBC [6]	MIC [6]	Activity [7]	IC90 ([8]; Leishmania donovani, 72 h)	IC50 [8, 13]	IC90 ([9]; Leishmania donovani, 72 h)	IC50 ([9]; Leishmania donovani, 72 h)	MIC [5]	other results
Oc1ccc(C(c2c[nH]c3ccccc23)c2c[nH]c3ccccc23)cc1	18.9 µM	59.2 µM (≈ 20 µg/mL)	29.6 µM (≈ 10 µg/mL)	inactive	inactive	Not Active	inactive	inactive	inactive	59.2 µM (≈ 20 µg/mL)	17.8 µM	10.5 µM	inactive	29.6 µM (≈ 10 µg/mL)	Non-toxic	88.9 µM	51.3 µM	106 µM	92.8 µM		
COc1ccc2[nH]cc(C(c3cc(F)cc(F)c3)c3c[nH]c4ccc(OC)cc34)c2c1	18.4 µM	inactive	47.9 µM (≈ 20 µg/mL)	inactive	inactive	Not Active	inactive	inactive	inactive	11.7 µM (≈ 4.9 µg/mL)	6.89 µM	4.05 µM	inactive	11.7 µM (≈ 4.9 µg/mL)	Non-toxic	78.7 µM	49.6 µM	65.3 µM	26.8 µM		
COc1ccc(C(c2c[nH]c3ccccc23)c2c[nH]c3ccccc23)cc1	35.5 µM	inactive	inactive	inactive	inactive	Not Active	inactive	inactive	inactive			9.06 µM	inactive	inactive	Non-toxic			106 µM	89 µM	inactive	IC50 [5]: Not Active; IC50 [8]: Not Active; IC90 [8]: inactive
c1csc(C(c2c[nH]c3ccccc23)c2c[nH]c3ccccc23)c1	18.9 µM	30.5 µM (≈ 10 µg/mL)	30.5 µM (≈ 10 µg/mL)	inactive	inactive	Not Active	inactive	inactive	inactive		13.5 µM	9.15 µM	inactive	15.2 µM (≈ 4.99 µg/mL)	Non-toxic	101 µM	70.2 µM		100 µM	inactive	IC90 [9]: inactive
Clc1cccc(Cl)c1C(c1c[nH]c2ccccc12)c1c[nH]c2ccccc12						Not Active	inactive	inactive	inactive			2.36 µM	51.3 µM (≈ 20.1 µg/mL)	6.41 µM (≈ 2.51 µg/mL)	Non-toxic	81.5 µM	48.4 µM	90.8 µM	80.7 µM	inactive	IC50 [5]: Not Active; IC50 [10]: 12.1 µM
Fc1ccc(C(c2c[nH]c3ccccc23)c2c[nH]c3ccccc23)cc1Br	1.94 µM	5.98 µM (≈ 2.51 µg/mL)	2.99 µM (≈ 1.25 µg/mL)	inactive	inactive	Not Active	inactive	inactive	inactive	23.9 µM (≈ 10 µg/mL)	9.23 µM	3.76 µM	inactive	5.98 µM (≈ 2.51 µg/mL)	Non-toxic	74.5 µM	47.5 µM	22.9 µM	17.6 µM		
Oc1ccc(C(c2c[nH]c3ccc(I)cc23)c2c[nH]c3ccc(I)cc23)cc1	1.8 µM			inactive	inactive	Not Active	inactive	inactive		2.12 µM (≈ 1.25 µg/mL)	1.15 µM	2.1 µM	33.9 µM (≈ 20 µg/mL)	4.24 µM (≈ 2.5 µg/mL)	Non-toxic	52.5 µM	39.8 µM	53.2 µM	19.1 µM		MBC [5, 11]: 10 µM (≈ 5.9 µg/mL)
Oc1ccccc1C(c1c[nH]c2ccccc12)c1c[nH]c2ccccc12	14.6 µM	inactive	59.2 µM (≈ 20 µg/mL)	inactive	inactive	Not Active	inactive	inactive	inactive		36.2 µM	17.2 µM	inactive	59.2 µM (≈ 20 µg/mL)	Non-toxic		95.9 µM	75.7 µM	41.1 µM	inactive	IC90 [8]: inactive
